# Key:
# Conditions in all cases: 1 mM ATP; inhibitor
# EIF2AK4/GCN2 = EIF2AK4/GCN2 (Homo sapiens, UniProt Q9P2K8)
# Method: (§1) Kinase selectivity panel Kinome profiling was conducted by AssayQuant Technologies (Marlboro, MA) using Sox chromophore technology and Sox-based peptide substrates developed for human kinases in a 384-well format. Compounds were tested at 1 µM in the presence of 1 mM ATP.
# NEK1 = NEK1 (Homo sapiens, UniProt Q96PY6)
# Method: as §1
# NUAK1 = NUAK1 (Homo sapiens, UniProt O60285)
# Method: as §1
# PAK6 = PAK6 (Homo sapiens, UniProt Q9NQU5)
# Method: as §1
# PDK1 = target: T1, PDK1 (Homo sapiens, UniProt O15530)
# T1 construct: gene PDPK1
# Method: as §1
# CSNK2A1/CK2A1 = CSNK2A1/CK2A1 (Homo sapiens, UniProt P68400)
# Method: as §1
# LATS1 = LATS1 (Homo sapiens, UniProt O95835)
# Method: as §1
# DYRK2 = DYRK2 (Homo sapiens, UniProt Q92630)
# Method: as §1
# CDK9/K = CDK9/K (Homo sapiens, UniProt P50750)
# Method: as §1
# GRK5 = GRK5 (Homo sapiens, UniProt P34947)
# Method: as §1
# MAP3K11 = MAP3K11 (Homo sapiens, UniProt Q16584)
# Method: as §1
# NTRK3/TRKC = NTRK3/TRKC (Homo sapiens, UniProt Q16288)
# Method: as §1
# MAP4K4/HGK = MAP4K4/HGK (Homo sapiens, UniProt O95819)
# Method: as §1
# MAP3K6/ASK2 = MAP3K6/ASK2 (Homo sapiens, UniProt O95382)
# Method: as §1
# CSNK1A1/CK1A1 = CSNK1A1/CK1A1 (Homo sapiens, UniProt P48729)
# Method: as §1
# STK3/MST2 = STK3/MST2 (Homo sapiens, UniProt Q13188)
# Method: as §1
# PHKG1 = PHKG1 (Homo sapiens, UniProt Q16816)
# Method: as §1
# FGFR4 = FGFR4 (Homo sapiens, UniProt P22455)
# Method: as §1
# PRKCE/PKCE = PRKCE/PKCE (Homo sapiens, UniProt Q02156)
# Method: as §1
# PRKCQ/PKCQ = PRKCQ/PKCQ (Homo sapiens, UniProt Q04759)
# Method: as §1
# PDHK3 = target: T2, PDHK3 (Homo sapiens, UniProt Q15120)
# T2 construct: gene PDK3
# Method: as §1
# PTK6/BRK = PTK6/BRK (Homo sapiens, UniProt Q13882)
# Method: as §1
# PIM1 = PIM1 (Homo sapiens, UniProt P11309)
# Method: as §1
# PDGFRB = PDGFRB (Homo sapiens, UniProt P09619)
# Method: as §1
# CDK6/D3 = CDK6/D3 (Homo sapiens, UniProt Q00534)
# Method: as §1
# CTK = target: T3, CTK (Homo sapiens, UniProt P42679)
# T3 construct: gene MATK
# Method: as §1
# PRKCB1/PKCB1 = target: T4, PRKCB1/PKCB1 (Homo sapiens, UniProt P05771)
# T4 construct: gene PRKCB
# Method: as §1
# CDC42BPG/DMPK2 = CDC42BPG/DMPK2 (Homo sapiens, UniProt Q6DT37)
# Method: as §1
# HCK = HCK (Homo sapiens, UniProt P08631)
# Method: as §1
# STK11/LKB1 = STK11/LKB1 (Homo sapiens, UniProt Q15831)
# Method: as §1
# TTBK2 = TTBK2 (Homo sapiens, UniProt Q6IQ55)
# Method: as §1
# STK10/LOK = STK10/LOK (Homo sapiens, UniProt O94804)
# Method: as §1
# RPS6KA4/MSK2 = RPS6KA4/MSK2 (Homo sapiens, UniProt O75676)
# Method: as §1
# PRKX = PRKX (Homo sapiens, UniProt P51817)
# Method: as §1
# HASPIN = HASPIN (Homo sapiens, UniProt Q8TF76)
# Method: as §1
# MINK1 = MINK1 (Homo sapiens, UniProt Q8N4C8)
# Method: as §1
# TSSK6 = TSSK6 (Homo sapiens, UniProt Q9BXA6)
# Method: as §1
# CDK1/B1 = CDK1/B1 (Homo sapiens, UniProt P06493)
# Method: as §1
# Chain of PRKCE/PKCE (Q02156 whole entry): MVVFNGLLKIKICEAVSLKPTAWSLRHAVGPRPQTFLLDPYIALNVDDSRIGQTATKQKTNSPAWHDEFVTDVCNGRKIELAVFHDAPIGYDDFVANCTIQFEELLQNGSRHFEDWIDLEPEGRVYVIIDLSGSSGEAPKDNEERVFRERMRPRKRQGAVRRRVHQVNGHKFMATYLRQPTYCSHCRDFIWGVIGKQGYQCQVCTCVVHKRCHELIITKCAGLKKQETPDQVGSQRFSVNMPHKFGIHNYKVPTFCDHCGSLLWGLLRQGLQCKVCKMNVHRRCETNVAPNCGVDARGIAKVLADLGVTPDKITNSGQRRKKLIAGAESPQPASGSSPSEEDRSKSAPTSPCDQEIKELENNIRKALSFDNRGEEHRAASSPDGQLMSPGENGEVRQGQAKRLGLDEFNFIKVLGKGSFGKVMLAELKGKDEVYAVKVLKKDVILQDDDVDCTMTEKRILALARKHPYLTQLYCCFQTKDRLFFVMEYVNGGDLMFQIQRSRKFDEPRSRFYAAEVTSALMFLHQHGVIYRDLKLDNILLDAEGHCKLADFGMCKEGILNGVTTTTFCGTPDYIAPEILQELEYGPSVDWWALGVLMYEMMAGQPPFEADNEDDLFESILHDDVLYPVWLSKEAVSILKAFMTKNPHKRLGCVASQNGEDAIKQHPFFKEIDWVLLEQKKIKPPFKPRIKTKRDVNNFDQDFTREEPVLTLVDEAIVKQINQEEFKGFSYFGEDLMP
# Chain of PRKX (P51817 whole entry): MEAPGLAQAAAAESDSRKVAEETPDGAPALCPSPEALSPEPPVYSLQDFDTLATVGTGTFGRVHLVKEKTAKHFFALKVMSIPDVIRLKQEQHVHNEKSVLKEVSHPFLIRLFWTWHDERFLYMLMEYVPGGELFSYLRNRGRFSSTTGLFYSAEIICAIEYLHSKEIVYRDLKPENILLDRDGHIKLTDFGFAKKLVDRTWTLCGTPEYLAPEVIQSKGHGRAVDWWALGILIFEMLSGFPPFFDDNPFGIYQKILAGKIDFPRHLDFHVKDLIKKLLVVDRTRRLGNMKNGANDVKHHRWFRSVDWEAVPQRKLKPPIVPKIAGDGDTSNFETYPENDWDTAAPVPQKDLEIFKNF
# Chain of TTBK2 (Q6IQ55 whole entry): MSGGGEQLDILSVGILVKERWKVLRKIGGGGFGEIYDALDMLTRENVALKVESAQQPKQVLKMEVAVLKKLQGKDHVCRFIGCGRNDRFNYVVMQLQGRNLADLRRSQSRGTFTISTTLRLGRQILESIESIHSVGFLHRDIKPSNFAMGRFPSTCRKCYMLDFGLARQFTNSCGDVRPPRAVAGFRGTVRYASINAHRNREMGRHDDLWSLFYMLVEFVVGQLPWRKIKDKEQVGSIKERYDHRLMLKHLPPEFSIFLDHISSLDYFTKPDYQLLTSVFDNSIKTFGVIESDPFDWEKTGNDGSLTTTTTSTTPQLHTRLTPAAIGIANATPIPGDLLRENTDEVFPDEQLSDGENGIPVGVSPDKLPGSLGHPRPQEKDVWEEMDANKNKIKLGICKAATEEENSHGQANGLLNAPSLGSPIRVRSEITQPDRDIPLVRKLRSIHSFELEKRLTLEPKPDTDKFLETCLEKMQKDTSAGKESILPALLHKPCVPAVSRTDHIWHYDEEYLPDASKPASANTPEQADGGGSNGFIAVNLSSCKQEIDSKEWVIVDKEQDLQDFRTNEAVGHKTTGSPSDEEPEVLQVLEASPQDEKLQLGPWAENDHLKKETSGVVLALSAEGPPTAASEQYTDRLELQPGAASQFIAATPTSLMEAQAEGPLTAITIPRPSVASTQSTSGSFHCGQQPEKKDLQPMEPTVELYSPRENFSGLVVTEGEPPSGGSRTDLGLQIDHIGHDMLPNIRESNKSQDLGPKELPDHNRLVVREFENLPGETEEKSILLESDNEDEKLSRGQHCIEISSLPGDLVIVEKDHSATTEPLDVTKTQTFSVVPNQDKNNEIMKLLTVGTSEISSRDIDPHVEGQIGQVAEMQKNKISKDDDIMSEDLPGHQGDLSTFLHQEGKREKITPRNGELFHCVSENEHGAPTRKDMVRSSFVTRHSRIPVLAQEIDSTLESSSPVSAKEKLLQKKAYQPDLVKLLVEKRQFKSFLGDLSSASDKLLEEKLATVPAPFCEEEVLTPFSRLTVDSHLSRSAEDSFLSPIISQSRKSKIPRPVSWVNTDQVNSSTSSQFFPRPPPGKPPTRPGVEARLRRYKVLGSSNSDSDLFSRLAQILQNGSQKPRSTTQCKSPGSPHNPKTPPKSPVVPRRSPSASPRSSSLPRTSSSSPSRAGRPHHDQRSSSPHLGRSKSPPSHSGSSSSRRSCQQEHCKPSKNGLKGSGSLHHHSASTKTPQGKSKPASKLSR
# Chain of CDK6/D3 (Q00534 whole entry): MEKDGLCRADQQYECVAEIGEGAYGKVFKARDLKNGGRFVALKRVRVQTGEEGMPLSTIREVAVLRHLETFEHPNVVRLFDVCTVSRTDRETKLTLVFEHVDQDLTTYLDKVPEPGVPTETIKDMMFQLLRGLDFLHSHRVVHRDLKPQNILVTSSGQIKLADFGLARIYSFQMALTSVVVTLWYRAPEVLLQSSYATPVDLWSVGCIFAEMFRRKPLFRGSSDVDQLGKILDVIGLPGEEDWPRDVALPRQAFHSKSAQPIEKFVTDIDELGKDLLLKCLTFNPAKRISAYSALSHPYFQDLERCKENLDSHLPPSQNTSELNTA
# Chain of CDK6/D3 (P30281 whole entry partner): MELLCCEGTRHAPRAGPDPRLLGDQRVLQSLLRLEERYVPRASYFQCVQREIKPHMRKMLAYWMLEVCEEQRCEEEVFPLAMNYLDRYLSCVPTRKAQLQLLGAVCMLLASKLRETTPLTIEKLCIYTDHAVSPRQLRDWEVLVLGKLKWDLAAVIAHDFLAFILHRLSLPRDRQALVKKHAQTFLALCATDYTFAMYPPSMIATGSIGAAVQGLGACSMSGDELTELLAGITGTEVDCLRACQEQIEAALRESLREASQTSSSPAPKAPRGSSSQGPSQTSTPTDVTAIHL
# Chain of HCK (P08631 whole entry): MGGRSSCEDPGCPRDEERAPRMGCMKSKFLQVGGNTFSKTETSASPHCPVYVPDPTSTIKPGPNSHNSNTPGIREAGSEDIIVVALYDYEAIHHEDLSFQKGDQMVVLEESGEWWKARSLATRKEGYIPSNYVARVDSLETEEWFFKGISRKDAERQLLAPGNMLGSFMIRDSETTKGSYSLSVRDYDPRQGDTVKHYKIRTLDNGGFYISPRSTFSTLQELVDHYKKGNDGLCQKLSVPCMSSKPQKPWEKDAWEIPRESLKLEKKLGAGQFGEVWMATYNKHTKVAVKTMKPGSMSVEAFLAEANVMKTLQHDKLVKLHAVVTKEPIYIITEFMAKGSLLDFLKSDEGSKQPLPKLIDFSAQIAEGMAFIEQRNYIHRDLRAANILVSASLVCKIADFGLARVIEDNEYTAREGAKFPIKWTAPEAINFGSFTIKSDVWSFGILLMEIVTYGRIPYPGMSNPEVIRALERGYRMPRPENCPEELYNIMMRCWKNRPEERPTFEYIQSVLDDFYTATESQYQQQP
# Chain of HASPIN (Q8TF76 whole entry): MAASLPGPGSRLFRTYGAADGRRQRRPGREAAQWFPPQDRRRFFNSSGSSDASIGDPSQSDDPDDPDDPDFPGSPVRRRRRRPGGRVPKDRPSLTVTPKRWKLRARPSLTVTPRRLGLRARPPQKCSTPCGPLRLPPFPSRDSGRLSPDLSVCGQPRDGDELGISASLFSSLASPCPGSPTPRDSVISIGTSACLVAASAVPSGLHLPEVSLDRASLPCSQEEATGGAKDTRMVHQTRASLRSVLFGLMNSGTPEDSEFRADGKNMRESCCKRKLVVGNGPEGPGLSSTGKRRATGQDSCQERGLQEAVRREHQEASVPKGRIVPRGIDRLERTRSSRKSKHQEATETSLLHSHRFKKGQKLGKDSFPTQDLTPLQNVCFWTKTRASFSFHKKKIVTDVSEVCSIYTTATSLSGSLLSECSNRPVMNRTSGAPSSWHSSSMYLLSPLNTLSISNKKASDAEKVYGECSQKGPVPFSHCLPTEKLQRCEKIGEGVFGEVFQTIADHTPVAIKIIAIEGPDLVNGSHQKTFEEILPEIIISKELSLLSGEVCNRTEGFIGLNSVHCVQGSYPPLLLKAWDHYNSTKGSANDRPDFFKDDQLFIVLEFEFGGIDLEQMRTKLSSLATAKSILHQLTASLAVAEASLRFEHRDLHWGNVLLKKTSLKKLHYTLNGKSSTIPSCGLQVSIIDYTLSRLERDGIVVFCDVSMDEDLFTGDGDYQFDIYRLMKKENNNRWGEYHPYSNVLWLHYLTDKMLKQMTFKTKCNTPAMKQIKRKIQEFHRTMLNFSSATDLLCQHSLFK
# Chain of GRK5 (P34947 whole entry): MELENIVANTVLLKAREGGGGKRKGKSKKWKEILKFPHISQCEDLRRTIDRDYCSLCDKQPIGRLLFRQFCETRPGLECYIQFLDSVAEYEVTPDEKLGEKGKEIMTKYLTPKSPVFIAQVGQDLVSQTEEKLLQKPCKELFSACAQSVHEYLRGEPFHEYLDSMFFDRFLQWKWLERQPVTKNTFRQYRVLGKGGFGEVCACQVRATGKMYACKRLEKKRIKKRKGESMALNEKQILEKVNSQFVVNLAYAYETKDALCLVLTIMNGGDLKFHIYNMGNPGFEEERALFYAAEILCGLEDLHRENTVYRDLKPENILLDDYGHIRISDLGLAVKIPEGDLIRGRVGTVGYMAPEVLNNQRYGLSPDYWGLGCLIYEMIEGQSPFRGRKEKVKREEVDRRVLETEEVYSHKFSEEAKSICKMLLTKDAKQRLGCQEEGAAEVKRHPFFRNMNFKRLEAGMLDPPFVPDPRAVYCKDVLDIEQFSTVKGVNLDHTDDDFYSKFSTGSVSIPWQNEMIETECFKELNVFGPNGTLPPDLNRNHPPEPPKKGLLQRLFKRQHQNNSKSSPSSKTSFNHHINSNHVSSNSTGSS
smiles,measurement,setting,value
C=CC(=O)N1CCC[C@@H](n2nc(-c3ccc(Oc4ccccc4)cc3)c3c(N)ncnc32)C1 [Ibrutinib],"1 µM GBD00276 (ibrutinib), % inhibition",EIF2AK4/GCN2,-3.934%
same,"1 µM GBD00276 (ibrutinib), % inhibition",NEK1,-6.252%
same,"1 µM GBD00276 (ibrutinib), % inhibition",NUAK1,-1.079%
same,"1 µM GBD00276 (ibrutinib), % inhibition",PAK6,14.55%
same,"1 µM GBD00276 (ibrutinib), % inhibition",PDK1,7.444%
same,"1 µM GBD00276 (ibrutinib), % inhibition",CSNK2A1/CK2A1,11.48%
same,"1 µM GBD00276 (ibrutinib), % inhibition",LATS1,11.97%
same,"1 µM GBD00276 (ibrutinib), % inhibition",DYRK2,14.5%
same,"1 µM GBD00276 (ibrutinib), % inhibition",CDK9/K,-8.235%
same,"1 µM GBD00276 (ibrutinib), % inhibition",GRK5,-10.93%
same,"1 µM GBD00276 (ibrutinib), % inhibition",MAP3K11,-6.395%
same,"1 µM GBD00276 (ibrutinib), % inhibition",NTRK3/TRKC,9.419%
same,"1 µM GBD00276 (ibrutinib), % inhibition",MAP4K4/HGK,-8.478%
same,"1 µM GBD00276 (ibrutinib), % inhibition",MAP3K6/ASK2,25.05%
same,"1 µM GBD00276 (ibrutinib), % inhibition",CSNK1A1/CK1A1,2.433%
same,"1 µM GBD00276 (ibrutinib), % inhibition",STK3/MST2,-10.97%
same,"1 µM GBD00276 (ibrutinib), % inhibition",PHKG1,0.1781%
same,"1 µM GBD00276 (ibrutinib), % inhibition",FGFR4,19.57%
same,"1 µM GBD00276 (ibrutinib), % inhibition",PRKCE/PKCE,-10.08%
same,"1 µM GBD00276 (ibrutinib), % inhibition",PRKCQ/PKCQ,12.04%
same,"1 µM GBD00276 (ibrutinib), % inhibition",PDHK3,2.509%
same,"1 µM GBD00276 (ibrutinib), % inhibition",PTK6/BRK,98.64%
same,"1 µM GBD00276 (ibrutinib), % inhibition",PIM1,0.08032%
same,"1 µM GBD00276 (ibrutinib), % inhibition",PDGFRB,19.79%
same,"1 µM GBD00276 (ibrutinib), % inhibition",CDK6/D3,7.258%
same,"1 µM GBD00276 (ibrutinib), % inhibition",CTK,-75.13%
same,"1 µM GBD00276 (ibrutinib), % inhibition",PRKCB1/PKCB1,-10.64%
same,"1 µM GBD00276 (ibrutinib), % inhibition",CDC42BPG/DMPK2,-2.51%
same,"1 µM GBD00276 (ibrutinib), % inhibition",HCK,42.82%
same,"1 µM GBD00276 (ibrutinib), % inhibition",STK11/LKB1,-2.74%
same,"1 µM GBD00276 (ibrutinib), % inhibition",TTBK2,6.635%
same,"1 µM GBD00276 (ibrutinib), % inhibition",STK10/LOK,-13.28%
same,"1 µM GBD00276 (ibrutinib), % inhibition",RPS6KA4/MSK2,6.848%
same,"1 µM GBD00276 (ibrutinib), % inhibition",PRKX,11.47%
same,"1 µM GBD00276 (ibrutinib), % inhibition",HASPIN,7.214%
same,"1 µM GBD00276 (ibrutinib), % inhibition",MINK1,7.641%
same,"1 µM GBD00276 (ibrutinib), % inhibition",TSSK6,2.044%
same,"1 µM GBD00276 (ibrutinib), % inhibition",CDK1/B1,-7.635%

# From publication PMC10337138 (Acta Neuropathologica Communications, 2023)
